Values of other authors, collected in patent US12121558B2 (priority 2019, dated 2024).

Compound: O=c1c(O)c(-c2ccc(O)c(O)c2)oc2cc(O)cc(O)c12 [quercetin, Quercetin]
- elimination half-life (after oral ingestion of quercetin containing foods or supplements): 1 to 2 h
- bioavailability (in humans, low and highly variable): 0-50%
